From publication PMC8308585, “Design and Synthesis of Novel Thiazolo[5,4-d]pyrimidine Derivatives with High Affinity for Both the Adenosine A1 and A2A Receptors, and Efficacy in Animal Models of Depression” (Pharmaceuticals, 2021) come the findings set out here.

The target of one test is T1, human A1 AR (Homo sapiens, UniProt P30542).
T1 construct: expressed in transfected cells; host or cells: CHO cells
T1 sequence (P30542 1-326): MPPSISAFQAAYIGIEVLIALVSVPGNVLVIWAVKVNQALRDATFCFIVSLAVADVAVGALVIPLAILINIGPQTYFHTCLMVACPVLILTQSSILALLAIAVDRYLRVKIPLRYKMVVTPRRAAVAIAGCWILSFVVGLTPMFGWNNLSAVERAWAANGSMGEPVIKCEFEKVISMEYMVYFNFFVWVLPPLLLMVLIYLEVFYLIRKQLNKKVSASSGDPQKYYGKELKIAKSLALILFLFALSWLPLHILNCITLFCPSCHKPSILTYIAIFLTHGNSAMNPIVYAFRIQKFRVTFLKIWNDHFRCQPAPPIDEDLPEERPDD
The test can be described thus: Radioligand binding, displacement of [3H]-CCPA at hA1 AR in CHO cells. The following applies: displacement of specific [3H]-CCPA binding, n = 3–6, mean ± SEM.

A further test has as its target T2, hA3 AR (Homo sapiens, UniProt P0DMS8).
T2 construct: expressed in transfected cells; host or cells: CHO cells
T2 sequence (P0DMS8 1-318): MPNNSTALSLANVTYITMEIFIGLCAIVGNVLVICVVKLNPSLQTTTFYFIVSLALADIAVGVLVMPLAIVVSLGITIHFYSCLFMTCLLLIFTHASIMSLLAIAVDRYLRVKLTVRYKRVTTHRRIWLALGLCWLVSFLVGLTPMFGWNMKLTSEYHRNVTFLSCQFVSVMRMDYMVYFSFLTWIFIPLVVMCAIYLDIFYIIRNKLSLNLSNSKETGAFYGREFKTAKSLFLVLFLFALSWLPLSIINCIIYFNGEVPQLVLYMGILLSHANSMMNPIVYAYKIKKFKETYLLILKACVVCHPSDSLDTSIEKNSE
The test can be described thus: Radioligand binding, displacement of [3H]-HEMADO at hA3 AR in CHO cells. To be noted: displacement of specific [3H]-HEMADO binding, mean ± SEM.

The target in a further test is T3, hA2B AR (Homo sapiens, UniProt P29275).
T3 construct: expressed in transfected cells; host or cells: CHO cells
T3 sequence (P29275 1-332): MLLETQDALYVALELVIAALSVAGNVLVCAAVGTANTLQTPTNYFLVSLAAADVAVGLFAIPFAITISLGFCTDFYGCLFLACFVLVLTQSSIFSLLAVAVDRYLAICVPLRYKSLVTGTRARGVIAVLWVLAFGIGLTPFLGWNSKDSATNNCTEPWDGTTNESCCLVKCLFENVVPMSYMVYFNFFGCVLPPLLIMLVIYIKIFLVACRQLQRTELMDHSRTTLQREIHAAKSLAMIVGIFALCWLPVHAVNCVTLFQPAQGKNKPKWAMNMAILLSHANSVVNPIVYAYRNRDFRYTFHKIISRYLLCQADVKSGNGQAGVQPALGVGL
The test can be described thus: Inhibition of NECA-stimulated adenylyl cyclase activity (cAMP) in CHO cells expressing hA2B AR. It is filed as cell-based. To be noted: mean ± SEM. The method, then:
Compounds 1–19 were evaluated for their binding affinity at hA1, hA2A, and hA3 ARs, stably transfected in Chinese hamster ovary (CHO) cells. […].
The binding affinity of the novel compounds was evaluated using radioligand competition experiments in CHO cells stably transfected with hA1 AR, hA2A AR, and hA3 AR subtypes. […]; The potency at hA2B AR, expressed on CHO cells, was determined by inhibition of NECA-stimulated adenylyl cyclase activity. […]
(§1) Binding data and concentration–response curves were fitted by a nonlinear regression with the Prism program (GraphPAD Prism 7 Software, San Diego, CA, USA). Each concentration was tested 3–5 times in duplicate and the Ki or IC50 (the concentration of antagonists that produces 50% inhibition of the agonist effect) values are given as the mean ± standard error (S.E.).

The target in another test is T4, hA1 AR (Homo sapiens, UniProt P30542).
T4 construct: expressed in transfected cells; host or cells: CHO cells
T4 sequence (P30542 1-326): T1 sequence (P30542 1-326)
The test can be described thus: Counteraction of NECA-induced decrease of cAMP in CHO cells expressing hA1 AR (GloSensor cAMP assay). In kind it is cell-based. The following applies: NECA-stimulated activity in CHO cells expressing hA1 AR, mean ± standard error. Here is the method:
(§2) Compound 18 was also tested to evaluate its antagonist behavior at the hA1 AR by assessing its ability to counteract NECA-induced decrease of cAMP accumulation.
(§3) The intrinsic activity of understudy compounds was evaluated through the GloSensor cAMP assay, as described previously. Briefly, cells stably expressing the hA1, hA2A, and hA2B ARs and the biosensor were incubated for 2 h at rt in equilibration medium containing 3% v/v GloSensor cAMP reagent stock solution, 10% FBS, and 87% CO2 independent medium. Afterward, cells were dispensed in the wells of a 384-well plate and the reference agonist NECA or the compounds, at different concentrations, were tested. The antagonist profile of compounds was evaluated by assessing their ability to counteract NECA-induced increase (A2A and A2B ARs) or decrease (A1 AR) of cAMP accumulation. Responses were expressed as percentage of the maximal relative luminescence units (RLU).
as §1

The target in the next test is T5, hA2A AR (Homo sapiens, UniProt P29274).
T5 construct: expressed in transfected cells; host or cells: CHO cells
T5 sequence (P29274 whole entry): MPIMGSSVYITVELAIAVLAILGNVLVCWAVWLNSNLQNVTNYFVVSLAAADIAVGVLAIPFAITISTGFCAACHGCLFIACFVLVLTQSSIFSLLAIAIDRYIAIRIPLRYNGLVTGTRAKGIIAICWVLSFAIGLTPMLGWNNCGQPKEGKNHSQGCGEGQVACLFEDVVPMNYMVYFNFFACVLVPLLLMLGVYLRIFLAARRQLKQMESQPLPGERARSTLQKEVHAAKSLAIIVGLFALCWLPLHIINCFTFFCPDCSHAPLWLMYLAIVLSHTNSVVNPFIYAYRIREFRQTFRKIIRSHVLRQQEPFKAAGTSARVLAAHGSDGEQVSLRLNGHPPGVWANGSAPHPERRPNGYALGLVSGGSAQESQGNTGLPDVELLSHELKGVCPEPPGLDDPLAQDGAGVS
The test can be described thus: Inhibition of NECA-induced increase of cAMP in CHO cells expressing hA2A AR (GloSensor cAMP assay). It is filed as cell-based. To be noted: inhibition of NECA-stimulated adenylyl cyclase activity, mean ± standard error. Here is the method:
as §2, §3, §1
For orientation: cAMP levels reflect the balance of adenylyl cyclase and phosphodiesterase activity.

The next test has as its system mice. The test can be described thus: Tail suspension test. In kind it is in vivo. To be noted: mouse TST, single dose, mean ± SEM of 10 mice, vehicle 99.0 ± 6.8. Here is the method:
To execute the tests, mice were divided into groups, each of which consisted of 10 animals. The tests were performed after a single p.o. administration of compound 18 at different dosages (10 mg Kg^−1 and 30 mg Kg^−1). Amitriptyline (15 mg Kg^−1) was used as the reference drug. Compounds were acutely administrated 26 min before the beginning of the experiment. In the FST (Table 4), the duration of immobility was recorded during the last 4 min of the 6 min test.
A decrease in the duration of immobility is indicative of an antidepressant-like effect. […] Accordingly, a similar activity was shown in the tail suspension test (Table 5) where the immobility time was measured in the first 2 min, when animals react to the inescapable stress, and in the last 4 min of the test, when the behavioral despair is established. Immobility was defined as the absence of any limb or body movements, except those caused by respiration. A reduction in the duration of the immobility time is indicative of an antidepressant-like effect.
Male CD-1 albino mice (22–25 g; Envigo, Varese, Italy) were housed in CeSAL (Centro Stabulazione Animali da Laboratorio, University of Florence, Florence, Italy) and used at least one week after their arrival. Animals were housed in 26 cm × 41 cm cages (12 mice each) and fed with a standard laboratory diet and tap water ad libitum. They were kept at 23 ± 1 °C with a 12 h light/dark cycle, light at 7 a.m. […]
A piece of tape was adhered to the upper middle of the tail of each animal, creating a flap with the overlap of tape. […] The duration of the test was 6 min and the immobility time was measured in the first 2 min, when animals react to the inescapable stress, and in the last 4 min of the test, when the behavioral despair is established. […]
Behavioral tests were performed by visual observation by researchers blinded to the treatments. Results were expressed as means ± SEM, variance was analyzed by ANOVA. […] Data were analyzed using the “Origin 8.1” software.

By Ki is commonly meant a measure of affinity in units of concentration, obtained from inhibition or displacement. The term IC50 denotes the point on the concentration scale where inhibition reaches its midpoint. A lower IC50 goes with greater potency.

Experimental for hA3 AR: (§4) CHO cells, stably expressing hARs, were grown adherently and maintained in Dulbecco’s modified Eagle’s medium (DMEM) with nutrient mixture F12 supplemented with 10% fetal bovine serum (FBS), penicillin (100 µg/mL), streptomycin (100 µg/mL), sodium pyruvate (1 mM), and geneticin (0.1 mg/mL).
(§5) Briefly, cells were homogenized in cold lysis buffer (5 mM Tris HCl, 2 mM EDTA, pH 7.4), centrifuged at low speed spin for 10 min, and subsequently, the supernatant was spun at 37,000 rpm. Membrane pellet was resuspended in the specific buffer and stored at −80 °C.
Experimental for human A1 AR: as §4, §5

For the molecule `Nc1nc(-c2ccco2)nc2sc(Cc3ccccc3F)nc12` [compound 18, 2-(2-Fluorobenzyl)-5-(furan-2-yl)thiazolo[5,4-d]pyrimidin-7-amine], the Ki at human A1 AR was 0.0019 ± 8e-05 µM; at hA3 AR, 0.0931 ± 0.0028 µM. Besides, the figures for the 50% inhibitory concentration (IC50) on hA2B AR, at hA1 AR and against hA2A AR were 0.384 ± 0.055 µM, 0.36 µM and 0.014 ± 0.0034 µM, respectively. The “Immobility Time” value with mice (10 mg kg^−1 p.o.) amounted to 88.9 ± 10.16 s; with mice (30 mg kg^−1 p.o.) it was 56.5 ± 6.1 s.
